Columns and labels:
[1] = tested on: chorioallantoic membrane (CAM); test: Anti-angiogenesis CAM assay; type: in vivo, White Leghorn eggs; conditions: ten eggs, 48 hours
Method: The dosing was effected by pipetting 40 μl of the indicated solution onto a 13 mm round Thermanox® coverslip and allowing it to air dry. After the material appeared dry, the coverslip was placed onto the chorioallantoic membrane (CAM) of each egg insuring contact of the dried test article with the CAM. After dosing, the eggs were returned to the incubator for approximately 48 hours. Following the 48 hour exposure period, the eggs were removed from the incubator, observed for viability, and the exposed area under the coverslip was examined for loss of vasculature.

HS 578T = test: NCI SRB tumor cell growth assay, Breast Cancer; type: cell-based
Method: (§1) An in vitro assay which tested the ability of N,N,-diethyl-8,8-dipropyl-2-azaspiro[4,5]decane-2-propanamine dimaleate (Compound 1) to inhibit the growth of known cancer cell lines was performed by the National Cancer Institute in accordance with standard procedures. See: Lin, Z. X., Hoult, J. R., and Raman, A. Sulphorhodamine B assay for measuring proliferation of a pigmented melanocyte cell line and its application to the evaluation of crude drugs used in the treatment of vitiligo. J Ethnopharmacol. 66: 141-150, 1999. Briefly, selected tumor cell lines were cultured in media containing five different concentrations of Compound 1. After 48 hours of continuous exposure, a sulforhodamine B (SRB) assay was used to estimate cell viability or growth via optical measurements.
(§2) From the measurements, the following values were determined: 1) the concentration of Compound 1 at which a tumor cell growth inhibition of 50% (relative to control) occurs (GI50), 2) the concentration of Compound 1 at which no growth occurs (total growth inhibition, TGI), and 3) the concentration of Compound 1 at which the […] (LC 50). […] FIG. 6 illustrates, graphically, tumor cell growth as a function of Compound 1 concentration of the scanned tumor cell lines.

CaCo-2 cells = test: Induction of apoptosis, DNA fragmentation analysis; type: cell-based, human; conditions: 12 hours
Method: (§3) T84, CaCo-2 and HUVEC cells, respectively, were grown in 100 mm dishes for 7-9 days, culture media for HUVEC was EGM-2 (Clonetics, BioWhitaker Co.), until they reached semi-confluency. Cell monolayers were then treated for 12 hours (CaCo-2 and T84) and 16 hours (HUVEC), respectively, at the indicated concentrations of N,N,-diethyl-8,8-dipropyl-2-azaspiro[4,5]decane-2-propanamine dimaleate (Compound 1) in culture media. Cells were collected by trypsinization and the apoptotic DNA was isolated from these cells following the instructions of the DNA fragmentation analysis kit (Boehringer Mannheim Corp., Indianapolis, Ind.). The apoptotic DNA was evaluated using 1.5% agarose gel electrophoresis followed by staining with ethidium bromide. M denotes the lane containing molecular weight markers of DNA.

HUVEC cells = test: Induction of apoptosis, DNA fragmentation analysis; type: cell-based, human; conditions: 16 hours
Method: as §3

T84 cells = test: Induction of apoptosis, DNA fragmentation analysis; type: cell-based, human; conditions: 12 hours
Method: as §3

caspase-3 = test: Activation of caspases in T84 colon carcinoma cells; type: cell-based, human; conditions: 10 hours
Method: (§4) Activities of caspase-3 and caspase-9 were measured using […] assay kits (BioVision, CA). The procedure used was essentially the same as described in the manufacturer's instruction. Briefly, 7-day-old monolayers of T 84 cells in 100 mm dishes were treated with either vehicle (as control) or N,N,-diethyl-8,8-dipropyl-2-azaspiro[4,5]decane-2-propanamine dimaleate (Compound 1) at the indicated respective concentrations for 10 hours. After the treatment, cells were washed with PBS and the cell extracts were prepared by resuspending cells in 200 μl (˜10^8 cells) of lysis buffer provided in the kit. Cell debris was removed by centrifugation at 10,000×g for 30 min. Supernatants (50-100 μg of protein) were pre-incubated with 10 mM dithiothreitol, 50 mM HEPES, 10% sucrose, 0.1% CHAPS (pH 7.5) and the reaction was started with the addition of 100 μM of the appropriate substrate (DEVD-pNA for caspase-3 and LEHD-pNA for caspase-9). The assay plates (96-well) were incubated at 37° C. for 2 hours, and the yellow color resulting from the release of pNA was measured at 405 nm using an ELISA reader. Samples were run in triplicate and results were expressed as an average of three determinations.

caspase-9 = test: as above; type: cell-based, human; conditions: 10 hours
Method: as §4

Various Tumor Cell Lines = test: NCI SRB tumor cell growth assay, summary over all cell lines; type: cell-based
Method: as §1, §2

Compound	Dead Eggs ([1]; Dose Per Egg 100 μg)	Log10 TGI (HS 578T)	DNA laddering (apoptosis) (CaCo-2 cells)	DNA laddering (apoptosis) (HUVEC cells)	DNA laddering (apoptosis) (T84 cells)	caspase-3 activity (caspase-3)	caspase-9 activity (caspase-9)	Log10 LC50, MG_MID (Various Tumor Cell Lines)	Dead Eggs ([1]; Dose Per Egg 25 μg)	Dead Eggs ([1]; Dose Per Egg 50 μg)	Dead Eggs ([1]; Dose Per Egg 200 μg)	Dead Eggs ([1]; Dose Per Egg 400 μg)
O=C1CCC(N2C(=O)c3ccccc3C2=O)C(=O)N1 (stereo not shown) [Thalidomide, reference compound]	0	–	–	–	–	–	–	–	–	–	–	–
CCCC1(CCC)CCC2(CCN(CCCN(CC)CC)C2)CC1.O=C(O)/C=C\C(=O)O.O=C(O)/C=C\C(=O)O [Compound 1, N,N,-diethyl-8,8-dipropyl-2-azaspiro[4,5]decane-2-propanamine dimaleate]	4	−5.40	formation of DNA laddering in a dose-dependent manner	formation of DNA laddering in a dose-dependent manner	formation of DNA laddering in a dose-dependent manner	activation	activation	−5.06	0	0	3	7

From patent US20070015780A1, “Method of treating cancer with azaspirane compositions” (priority 2003, published 2007)
